Data from US6100236A, “Method and composition for treating thrombosis” (La Jolla Cancer Research Foundation, priority 1995, dated 2000).
Where “and” joins values, the source holds several entries; their conditions need not be identical. Identical values can stand only once.

Tests used:
platelets [1] = experiment: Ex vivo platelet aggregation after peptide injection in canine coronary thrombosis model; parameters: species or system dog; details: for Ex vivo reduction of aggregation relative to control levels: 3 mg/kg
Description: For all ex vivo studies (see FIG. 3), control aggregation values were standardized to the percentages of light transmission observed in PRP and PPP samples (0% and 100%, respectively).
(§1) Animals were randomly assigned to two treatment groups: vehicle control (i.e., normal saline) or RGD peptides at various concentrations. Peptides were administered intra-atrially in both bolus and continuous injections. […] A continuous infusion of the same peptide was then started immediately after completion of this initial injection. Animals that received a 5 mg/kg bolus. also received a 5 mg/kg/hr infusion, whereas animals that received a 10 mg/kg bolus also received a 10 mg/kg/hr infusion. The anti-thrombotic effects of the peptides were monitored until 30 minutes after the occurrence of a persistent, occlusive thrombus or five hours after the initiation of electrical stimulation (whichever resulted first). If an occlusive thrombus had not developed within four hours after the initiation of current, the peptide infusion was stopped.
Platelet counts and ex vivo aggregation studies were performed one hour before and 1, 3, and 5 hours after application of anodal direct current.
Platelet aggregation was also determined ex vivo at one, three, and five hours after current application. […]
The average aggregation values determined in these studies for all of the peptide treatments are depicted in FIG. 3. […] The control responses in these studies were 70-80% of maximum. […] Here the control responses were 55-80% of maximum.

[2] = test system: Electrically induced canine coronary thrombosis; experiment: Electrically induced canine coronary thrombosis, time to full occlusion; type: in vivo, dog
Description: Male mongrel dogs weighing 14 to 20 kg were selected based on proper aggregation of their platelets in response to arachidonic acid, collagen, and adenosine disphosphate (ADP) and based on similar weights and hemodynamic properties.
Before surgery, the animals were anesthetized with sodium pentobarbital (30 mg/kg, i.v.) and then intubated and ventilated on room air with positive pressure using a respirator (Harvard Apparatus, S. Natick, Mass.) at a volume of 30 ml/kg and a frequency of 12 breaths/min. Surgery, performed under aseptic conditions, was begun with the placement of cannulae into the left carotid artery and jugular vein for monitoring arterial blood pressure (Statham P23 pressure transducer, Gould, Inc., Cardiovascular Products, Oxnard, Calif.) and administering intravenous fluids.
The heart was exposed via a left thoracotomy through the 5th intercostal space. A 2-cm segment of the left circumflex coronary artery (LCCA) was isolated from surrounding tissue by blunt dissection. […] The intra-coronary electrode was constructed by attaching a 25-gauge hypodermic needle tip to a 30-gauge Teflon-insulated silver-coated copper wire. The mechanical occluder was constructed of stainless steel in a C shape with a Teflon screw (2 mm diameter) on top. It was adjusted to control vessel circumference and decrease the reactive hyperemic flow due to a 10-sec (full) occlusion by 50-70% without affecting basal coronary blood flow (FIG. 1). A monopolar epicardial electrode was sutured to the surface of the ventricle in the region of LCCA distribution to monitor ischemic changes in the electrocardiogram (ECG). The left atrium was cannulated with polythylene tubing for administration of the peptide. Continuous recordings of blood pressure, limb lead II ECG, epicardial electrogram, and mean and phasic LCCA blood flow were obtained on a Model 7 polygraph (Grass Instrument Co., Quincy, Mass.).
One hour after the completion of surgery, a 100 micro-amp continuous anodal direct current delivered from a 9 volt nickel-cadmium battery was applied to the intimal surface of the LCCA. The anode of the battery was in series with a 250,000 ohm potentiometer and the intraluminal coronary artery electrode. The electric circuit was completed by placing the cathode in a subcutaneous site. Electrical stimulation was applied for three hours. At the conclusion of each experiment, the heart was fibrillated electrically and quickly removed, and the LCCA was dissected free as far as possible to verify the position of the implanted anodal electrode.
as §1
Coronary thrombosis was quantified as the time to full occlusion. The effects of the various peptide treatments on coronary thrombosis is illustrated in FIG. 4.

[3] = molecular target: T1, Fibronectin receptor (Fn-R) (Homo sapiens, UniProt P05556+P08648); experiment: Competitive ELISA for fibronectin receptor binding; details: purified receptor from human placenta, read-out: FnR Binding (IC50)
T1 construct: similarly purified from (100 mM) octyl glucoside-extracted human placenta; from tissue; host or cells: human placenta
T1 sequence (P08648 42-894 limits assumed): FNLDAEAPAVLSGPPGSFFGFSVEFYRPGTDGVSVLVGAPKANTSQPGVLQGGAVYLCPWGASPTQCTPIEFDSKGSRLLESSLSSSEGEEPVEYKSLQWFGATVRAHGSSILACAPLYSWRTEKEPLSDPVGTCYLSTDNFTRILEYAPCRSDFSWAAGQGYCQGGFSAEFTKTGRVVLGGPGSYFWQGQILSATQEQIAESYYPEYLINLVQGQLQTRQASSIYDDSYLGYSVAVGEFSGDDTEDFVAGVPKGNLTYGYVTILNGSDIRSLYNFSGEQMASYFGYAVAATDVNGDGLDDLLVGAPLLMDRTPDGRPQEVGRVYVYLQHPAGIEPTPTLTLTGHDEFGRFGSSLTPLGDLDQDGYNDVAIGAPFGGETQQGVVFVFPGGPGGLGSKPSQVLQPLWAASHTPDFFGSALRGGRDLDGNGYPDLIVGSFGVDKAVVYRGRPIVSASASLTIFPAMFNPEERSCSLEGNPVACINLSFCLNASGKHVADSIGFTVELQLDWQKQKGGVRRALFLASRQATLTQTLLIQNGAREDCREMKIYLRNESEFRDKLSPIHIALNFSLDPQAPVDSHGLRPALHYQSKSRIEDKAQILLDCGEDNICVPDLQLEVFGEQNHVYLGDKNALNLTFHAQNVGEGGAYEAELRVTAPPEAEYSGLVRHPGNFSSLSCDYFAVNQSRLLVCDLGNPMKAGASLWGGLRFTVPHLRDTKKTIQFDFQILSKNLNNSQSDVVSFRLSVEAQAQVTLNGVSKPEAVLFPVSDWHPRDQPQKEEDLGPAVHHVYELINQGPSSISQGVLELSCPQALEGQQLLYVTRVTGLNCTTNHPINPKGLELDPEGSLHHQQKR
T1 sequence (P08648 895-1049 partner limits assumed): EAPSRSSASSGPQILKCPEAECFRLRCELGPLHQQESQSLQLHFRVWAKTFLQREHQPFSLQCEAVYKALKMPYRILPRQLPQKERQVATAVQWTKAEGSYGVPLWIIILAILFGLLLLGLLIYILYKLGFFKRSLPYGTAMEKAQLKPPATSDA
T1 sequence (P05556 21-798): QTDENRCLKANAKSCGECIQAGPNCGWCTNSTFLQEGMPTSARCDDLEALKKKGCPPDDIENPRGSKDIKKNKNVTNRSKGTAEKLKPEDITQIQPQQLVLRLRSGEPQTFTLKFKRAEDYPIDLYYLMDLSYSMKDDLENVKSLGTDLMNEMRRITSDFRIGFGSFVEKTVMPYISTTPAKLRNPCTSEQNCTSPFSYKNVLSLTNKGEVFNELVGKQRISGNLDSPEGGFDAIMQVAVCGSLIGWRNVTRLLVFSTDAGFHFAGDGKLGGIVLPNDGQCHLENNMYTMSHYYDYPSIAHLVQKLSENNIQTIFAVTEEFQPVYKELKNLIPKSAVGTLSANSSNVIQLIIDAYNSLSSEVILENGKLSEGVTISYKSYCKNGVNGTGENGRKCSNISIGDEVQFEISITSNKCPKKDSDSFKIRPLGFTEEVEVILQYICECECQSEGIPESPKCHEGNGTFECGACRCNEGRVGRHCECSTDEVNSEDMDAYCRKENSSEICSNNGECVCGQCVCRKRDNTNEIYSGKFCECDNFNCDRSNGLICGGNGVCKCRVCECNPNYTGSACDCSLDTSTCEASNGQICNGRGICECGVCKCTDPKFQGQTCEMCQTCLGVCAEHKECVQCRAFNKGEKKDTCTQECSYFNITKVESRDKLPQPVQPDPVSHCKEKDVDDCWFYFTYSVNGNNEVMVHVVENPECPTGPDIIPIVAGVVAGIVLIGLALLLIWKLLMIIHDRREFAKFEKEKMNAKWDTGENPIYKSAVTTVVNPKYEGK
Description: Peptide binding to purified Fn-R was determined by using a competitive enzyme-linked immunosorbent assay (ELISA) in which fibronectin is immobilized and the binding of solubilized Fn-R is detected with labeled anti-FnR antibodies in the presence of various concentrations of peptide analogue.
Microtiter plates were coated with 110 μl of human fibronectin (at 2 μg/ml) in TBS. The plates were washed three times with TBS that contained 0.05% Tween 20. If necessary, peptides were added after this washing in 10 microliter aliquots. The fibronectin receptor was then added in 2-fold serial dilutions with TBS containing 20 mM octyl glucoside and 2 mM MnCl2. The plates were incubated for three hours at room temperature, washed with 200 μl of the above TBS-Tween buffer. 100 μl of affinity-purified rabbit anti-human fibronectin receptor antibody was added to the wells and the plates were incubated for an additional two hours, washed twice with TBS-Tween and then distilled water. Affinity-purified goat anti-rabbit IgG conjugated to horseradish peroxidase (100 μl) was then added to each well. Bonding reactions were incubated for 16 hours at room temperature. The following day, the plates were washed twice with TBS-Tween and then distilled water. […]
IC50 s for FnR were determined by ELISA (Example III).

platelets [4] = experiment: Ex vivo ADP-stimulated platelet aggregation in baboon PRP; details: animal 2; ADP 10 μm; PRP at 0, 1 and 2 hours
Description: At one- and two-hour time points, template bleeding times were measured, and blood samples were drawn to assess the hematology aggregation studies. Platelet aggregation studies were performed as described in Example V using ADP as the stimulus.
In addition, platelet aggregation studies were conducted on PRP derived from the second animal. Whole blood was drawn at three time points (0, 1 and 2 hours) of both control and experimental shunts.

[5] = 10 mg/kg bolus + 10 mg/kg/hr infusion, intra-atrial
[6] = 10 mg/kg injection, all three time points

For RPenGHRGDWRCR, the “Ex vivo inhibition of platelet activation by collagen” value (platelets [1]; 5 mg/kg injection) was “near-maximal inhibition”, the “Ex vivo platelet response to ADP and AA” value (platelets [1]; 5 mg/kg injection, all three time points) was “completely unresponsive” and the “Ex vivo anti-aggregation effect at low platelet count” value (platelets [1]; 5 mg/kg injection, platelet count ca. one-third of normal (104,000/ml vs. 361,000/ml)) was “more pronounced”. The “Effect on time to full coronary occlusion” value (“Effect on time” below) ([2]; 5 mg/kg bolus + 5 mg/kg/hr infusion, intra-atrial) was “significantly prolonged the time to occlusion”, the “Thrombus formation in animals with low platelet levels” value ([2]; 5 mg/kg, circulating platelet levels one-third of normal) was “able to prevent thrombus formation” and the “Effect on time” value [2, 5] was “completely prevented occlusion”.

With YRGDSPDG the IC50 [3] was 1100 nM.

For RPenGRGDWPCR, the “Ex vivo reduction of aggregation relative to control levels” value (platelets [1]; one hour) was 20-58%, the “Ex vivo reduction of aggregation relative to control levels” value (platelets [1]; three and five hours, listed as 4R) was 75-100% and 72-100% and the “Ex vivo platelet response to all modes of stimulation” value (platelets [1]; 10 mg/kg injection, all time points) was “unresponsive to all modes of stimulation”. The “Effect on time” value ([2]; 3 mg/kg) was “ineffective” and the “Effect on time” value [2, 5] was “prevented occlusion throughout the duration of the study”.

VRGDSPDG was tested, and the IC50 [3] was 40 nM.

In the case of GPenGHRGDLRCA, the “Ex vivo inhibition of ADP-stimulated aggregation” value (platelets [1]; 10 mg/kg injection, 1, 3 and 5 h) is reported as “substantially inhibited”, the “Ex vivo inhibition of AA-stimulated aggregation relative to control levels” value (platelets [1]; [6]) is reported as 43-70% and the “Ex vivo inhibition of collagen-stimulated aggregation relative to control levels” value (platelets [1]; [6]) is reported as 12-50%. For the same substance, the “Ex vivo platelet response to ADP” value (platelets [4]) was “completely unresponsive” and the “Effect on time” value [2, 5] was “did not significantly influence”.
